Test results as given in patent US20200038514A1, “FOLATE CONJUGATE FOR USE IN TARGETING TUMOR ASSOCIATED MACROPHAGES” (ENDOCYTE, INC., priority 2016, published 2020).

Legend:
Calf thymus DNA (CT-DNA) = assay: DNA crosslinking assay (ethidium bromide fluorescence); assay type: biochemical; settings: 1.1 to 75 μM, 37° C. 2 hours
Method: Calf thymus DNA (CT-DNA) was combined with increasing concentrations of Conjugate 5 (1.1 to 75 μM) or Conjugate 5+/−DTT. These solutions were incubated at 37° C. for 2 hours. The solutions were then mixed with ethidium bromide and incubated for 2 hours at room temperature. Fluorescence (Ex: 535 nm, Em: 605 nm) from these samples was measured on the Fluoroskan II fluorimeter. Next, the samples were heated to 104° C. for 5 minutes, cooled on ice for 5 minutes, kept at RT for 15 minutes and fluorescence measured. % crosslinking of each sample was calculated using the fluorescence values from the positive and negative controls.

KB tumor = assay: In vivo activity against KB tumors in mice; settings: 0.5 μmol/kg once a week for two weeks
Description: Treatment with 0.5 μmol/kg of Conjugate 5, once a week for two weeks also produced maximal anti-tumor activity with 100% cures. Change in weight is shown in FIG. 2B for test mice dosed at 0.5 μmol/kg Conjugate 5 SIW for two weeks (▴) compared to untreated control (▪).

[1] = system: KB-CR2000 (platin resistant) tumor; assay: In vivo activity against platinum resistant tumors; parameters: species or system mice; settings: Conjugate 5 0.5 μmol/kg SIW two weeks; EC1456 2.0 μmol/kg BIW two weeks; n=4
Method: (§1) Mice were maintained and tumor volumes were measures according to Method 3.
KB-CR2000 (platin resistant) tumor cells were inoculated subcutaneously at the right flank of each mouse. Mice were dosed through the lateral tail vein under sterile conditions in a volume of […] of phosphate-buffered saline (PBS).

ST502 TNBC PDX tumors = assay: In vivo activity against triple negative breast tumors (FIG. 5); parameters: species or system mice
Method: as §1
Primary human TNBC model ST502 (2-4 mm in diameter) or primary human TNBC model ST738 (2-4 mm in diameter) were inoculated subcutaneously at the right flank of each mouse. Mice were randomized into experimental groups of 7 mice each and test articles were injected through the lateral tail vein under sterile conditions in a volume of […] of phosphate-buffered saline (PBS).

ST070 ovarian PDX tumors = assay: In vivo activity against ovarian tumors; parameters: species or system mice
Method: as §1
Primary human Ovarian model ST070 fragments (2-4 mm in diameter) were inoculated subcutaneously at the right flank of each mouse. Mice were randomized into experimental groups of 7 mice each and test articles were injected through the lateral tail vein under sterile conditions in a volume of […] of phosphate-buffered saline (PBS).

ID8-C115 ascites tumors = assay: Conjugate 5 versus EC1456 against various stages of ID8-C115 ascites tumors, survival; assay type: in vivo, mice
Description: Mouse ascites tumors were generated by intra-peritoneal implantation of cultured cells at 5×10^6 in C57BL/6 mice.
In a first experiment (P-1836), all treatment started 7 days after the tumors were implanted. The mice were intravenously dosed with Conjugate 5 at 0.1 μmol/kg twice-per-week for a total of 6 doses (BIW×3). […] In a second experiment (P-1846), Conjugate 5 treatment started 21 days after the tumors were implanted. The mice were intravenously dosed with Conjugate 5 at 0.1 μmol/kg for 3 consecutive days each week for 3 weeks (D0-2×3, 9 doses). […] In a third experiment (P-1861), Conjugate 5 treatment started 35 days after the tumors were implanted. The mice were intravenously dosed with Conjugate 5 at 0.3 μmol/kg once-a-week for 2 consecutive weeks (SIW×2, 2 doses). […] In a fourth experiment (P-1836), Conjugate 5 treatment started 43 days after the tumors were implanted. The mice were intravenously dosed with Conjugate 5 at 0.3 μmol/kg once-a-week for 2 consecutive weeks (SIW×2, 2 doses). […] All mice were weighed 3 times/week and assessed for any clinical sign of swollen bellies indicative of ascites formation and for evidence of toxicity including respiratory distress, mobility, weight loss, diarrhea, hunched posture, and failure to eat. Once the animals developed ascites, they were monitored daily and euthanized when ascites became severe (rounded and walking on tip toes).

[2] = system: 4T1p tumor (FRα-negative); assay: Single-agent activity in vivo, 4T1p mammary tumors; parameters: species or system mice; settings: 0.2 μmol/kg i.v., BIW×3 doses
Description: (§2) Female Balb/c mice (4T1p, 4T1-C12) were purchased from Envigo (Indianapolis, Ind.) and used when they reached 6-8 weeks of age. The mice were fed a folate-deficient diet (TestDiet, St. Louis, Mo.) on the day of arrival.
(§3) Solid tumors in Balb/c mice were generated by subcutaneous implantation of cultured cells at 5×10^5 (4T1p) and 2×10^6 (4T1-C12) per animal in the mammary region.
(§4) Starting on day 0, mice with mammary 4T1p (˜78.3±12.1 mm^3) and 4T1-C12 (˜70.1±14.1 mm^3) were scheduled to receive Conjugate 5 at 200 nmol/kg, biweekly for two weeks. 4T1p tumor bearing mice received a total of 3 doses only and 4T1-C12 tumor bearing mice received a total of 4 doses as planned. Mice were weighed and measured for tumor size 3 times a week. The tumor volumes were calculated by the following formula: V=0.5×a×b^2, where a is the longest axis across the tumor, and b is the shorter axis perpendicular to a. The animals were euthanized when the tumor volume reached ˜1500 mm^3. Mice were also monitored closely for the evidence of toxicity such as respiratory distress, mobility, weight loss, diarrhea, hunched posture, and failure to eat. The last Conjugate 5 dose in the 4T1p tumor-bearing mice was skipped due to weight loss.

[3] = system: 4T1-C12 tumor (FRα-positive); assay: Single-agent activity in vivo, 4T1-C12 mammary tumors; parameters: species or system mice; settings: 0.2 μmol/kg i.v., BIW×4 doses
Description: as §2, §3, §4

4T1 TAMs = assay: Activity against 4T1 TAMs in vivo (FACS of tumors); parameters: species or system rats
Description: Female Foxn1^nu nude rats (Harlan, Inc., Indianapolis, Ind.) on a folate-deficient diet were subcutaneously implanted with 1×10^6 4 T1 tumor cells in the mammary region. When the tumors reached ˜1088 mm^3, the animals (n=3) were intravenously dosed with nothing (Control), 254 nmol/kg of Conjugate 5, 254 nmol/kg of Conjugate 5 plus 127 μmol/kg of EC0923, or 127 μmol/kg of EC0923. Four days later, the entire tumors were harvested, enzymatically digested, and subjected to FACS analysis. The tumor cell suspensions were stained for macrophage markers (CD163, CD11b), cell viability (propidium iodide), and late and early apoptosis (Annexin V).

With `C=C1C[C@H]2C=Nc3cc(OCCCCCOc4cc(N)c(C(=O)N5CC(=C)C[C@H]5C5OCCN5C(=O)OCC(C)(C)SSCCC(=O)NCCNC(=O)CCOCCOCCOCCOCCNC(=O)CCN5C(=O)CC(SC[C@H](NC(=O)[C@H](CC(=O)O)NC(=O)[C@H](CC(=O)O)NC(=O)[C@H](CCCNC(=N)N)NC(=O)[C@H](CC(=O)O)NC(=O)CC[C@H](NC(=O)c6ccc(NCc7cnc8nc(N)[nH]c(=O)c8n7)cc6)C(=O)O)C(=O)O)C5=O)cc4OC)c(OC)cc3C(=O)N2C1` (some centres unmarked) [Conjugate 5] the “DNA crosslinking, reduced form” value (Calf thymus DNA (CT-DNA); treated with DTT) was “can then crosslink with DNA”, the “DNA crosslinking, intact conjugate” value (Calf thymus DNA (CT-DNA); without DTT) was “not able to crosslink DNA” and the cures (KB tumor) was 100%. For the same compound, the “cure (number of mice)” value [1] was 4, the “cure (number of mice)” value (ST502 TNBC PDX tumors; 0.3 μmol/kg BIW for two weeks, n=7) was 7 and the “TNBC PDX tumor size compared to untreated control” value (ST502 TNBC PDX tumors; Conjugate 5 0.3 μmol/kg BIW two weeks, EC1456 2.0 μmol/kg BIW two weeks) was “decreased TNBC PDX tumor size”. The “cure (number of mice)” value (ST070 ovarian PDX tumors; 0.5 μmol/kg SIW for two weeks, n=7) was 7, the “ovarian PDX tumor size compared to untreated control” value (ST070 ovarian PDX tumors; Conjugate 5 0.5 μmol/kg SIW, EC1456 4.0 μmol/kg SIW, paclitaxel 15 mg/kg SIW, two weeks) was “decreased ovarian PDX tumor size” and the median survival time (ID8-C115 ascites tumors; 7-day-old tumors, Conjugate 5 0.1 mol/kg BIW×6 doses, EC1456 2 mol/kg BIW×6 doses, untreated ~46 days) was roughly 77 days post tumor implant. For the same compound, the toxicity observed (ID8-C115 ascites tumors; 21-day-old tumors, Conjugate 5 0.1 mol/kg D0-2×3, 9 doses, EC1456 2 μmol/kg D0-2×, 9 doses) was “mild ataxia”, the median survival time (ID8-C115 ascites tumors; 21-day-old tumors, Conjugate 5 0.1 mol/kg D0-2×3, 9 doses, EC1456 2 μmol/kg D0-2×, 9 doses (two remaining animals), untreated ~46 days) was roughly 76 days and the median survival time (ID8-C115 ascites tumors; 35-day-old tumors, Conjugate 5 0.3 μmol/kg SIW×2, 2 doses, EC1456 2 mol/kg D0-2×2, 4 doses, untreated ~42 days) was roughly 64 days post tumor implant. For the same compound, the median survival time (ID8-C115 ascites tumors; 43-day-old tumors, Conjugate 5 0.3 μmol/kg SIW×2, 2 doses, EC1456 2 mol/kg D0-2×1, 3 doses, untreated ~46 days) was roughly 57 days post tumor implant, the body weight [2] was “significant weight loss” and the complete responders [2] was “no complete responders”. The “tumor sensitivity / tumor growth” value [2] was “partial sensitivity”, the body weight [3] was “significant weight loss” and the “anti-TAM activity in presence of 500-fold excess of EC0923” value (4T1 TAMs; 254 nmol/kg Conjugate 5 plus 127 μmol/kg EC0923, single i.v. dose) was “not blocked”. The “effect against FR− cell populations including CD163-CD11b+ 4T1 TAMs and 4T1 tumor cells” value (4T1 TAMs; 254 nmol/kg, single i.v. dose) was “no effect” and the “effect on CD163+CD11b+ TAM population in 4T1 tumors” value (4T1 TAMs; single i.v. administration, Conjugate 5 254 nmol/kg, EC0923 127 μmol/kg, tumors harvested four days later, n=3) was “significantly decrease”.
